Data on 16 molecules can be found in patent US7015329B2 (Janssen Pharmaceutica N. V., priority 2003, dated 2006).

One assay has as its target T1, PPAR alpha (Homo sapiens, UniProt Q07869).
T1 construct: expressed in transfected cells; host or cells: HEK293
T1 sequence (Q07869 239-466 limits assumed): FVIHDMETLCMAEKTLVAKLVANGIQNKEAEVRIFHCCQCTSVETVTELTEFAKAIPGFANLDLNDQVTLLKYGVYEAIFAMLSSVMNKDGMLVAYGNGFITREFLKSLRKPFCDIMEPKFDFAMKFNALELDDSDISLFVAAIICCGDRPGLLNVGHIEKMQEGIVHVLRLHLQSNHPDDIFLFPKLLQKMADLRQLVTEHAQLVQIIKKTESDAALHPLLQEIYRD
Put plainly: Transfection assay for PPAR receptors (GAL4-LBD luciferase reporter), PPAR alpha. Type of assay: cell-based. The following applies: 18–24 hrs. As to the method: (§1) Transfection Assay Method for PPAR Receptors
(§2) HEK293 cells were grown in DMEM/F12 medium supplemented with 10% FBS and glutamine (Invitrogen) and incubated in a 5% CO2 incubator at 37° C. The cells were co-transfected using DMRIE-C reagent (Invitrogen) in serum free medium (Opti-MEM, Invitrogen) with two mammalian expression plasmids, one containing the DNA sequence coding for the ligand binding domains of either PPARαg or d fused to the yeast GAL4 DNA binding domain and the other containing the promoter sequence of the yeast GAL4 (UAS) fused to the firefly luciferase cDNA reporter. The next day, the medium was changed to DMEM/F12 medium supplemented with 5% charcoal treated serum (Hyclone) and glutamine. After 6 hrs the cells were trypsinized and seeded at a density of 50,000 cells/well into 96 well plates and incubated overnight as above. The cells were then treated with -test compounds or vehicle and incubated for 18–24 hrs as above. Luciferase reporter activity was measured using the Steady-Glo Luciferase Assay Kit from Promega. DMRIE-C Reagent was purchased from GIBCO Cat. No.10459-014. OPTI-MEM I Reduced Serum Medium was purchased from GIBCO (Cat. No. 31985). Steady-Glo Luciferase Assay Kit was purchased from Promega (Part#E254B).
A variety of example compounds have been made and tested, with a range of in vitro results. Below are representative compounds and data; in some cases, where multiple EC50's are shown, multiple measurements were taken. Naturally, different compounds in Formula (I) may have not have activities identical to any one compound below.
A general note: In a reporter assay the amount or activity of a reporter protein is the signal.

In a further assay the target is T2, PPAR gamma (Homo sapiens, UniProt P37231).
T2 construct: expressed in transfected cells; host or cells: HEK293
T2 sequence (P37231 238-503 limits assumed): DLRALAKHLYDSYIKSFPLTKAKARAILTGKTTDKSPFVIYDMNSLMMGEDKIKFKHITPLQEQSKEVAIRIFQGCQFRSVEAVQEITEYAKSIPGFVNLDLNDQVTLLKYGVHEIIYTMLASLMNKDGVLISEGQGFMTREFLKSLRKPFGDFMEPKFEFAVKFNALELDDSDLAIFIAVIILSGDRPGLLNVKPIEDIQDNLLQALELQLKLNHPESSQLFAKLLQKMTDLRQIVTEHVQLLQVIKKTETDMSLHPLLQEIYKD
Description: Transfection assay for PPAR receptors (GAL4-LBD luciferase reporter), PPAR gamma. Type of assay: cell-based. The following applies: 18–24 hrs. As to the method: as §1
as §2, with “OPTI-MEM I Reduced Serum Medium was purchased from GIBCO (Cat. No. 31985).” left out

The next assay addresses T3, PPAR delta (Homo sapiens, UniProt Q03181).
T3 construct: expressed in transfected cells; host or cells: HEK293
T3 sequence (Q03181 211-439 limits assumed): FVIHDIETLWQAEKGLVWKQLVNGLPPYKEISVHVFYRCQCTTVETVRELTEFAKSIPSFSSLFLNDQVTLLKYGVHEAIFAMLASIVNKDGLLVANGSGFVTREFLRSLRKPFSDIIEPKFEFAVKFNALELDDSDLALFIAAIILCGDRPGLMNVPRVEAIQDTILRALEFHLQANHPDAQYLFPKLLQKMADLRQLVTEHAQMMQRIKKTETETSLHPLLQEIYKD
Put plainly: Transfection assay for PPAR receptors (GAL4-LBD luciferase reporter), PPAR delta. Type of assay: cell-based. The following applies: 18–24 hrs. As to the method: as §1
as §2, with “OPTI-MEM I Reduced Serum Medium was purchased from GIBCO (Cat. No. 31985).” left out

Assay [1] relates to differentiated THP-1 monocytes. The following applies: cited from earlier work.
Setting [2] is: Table 1, HEK293 cells co-transfected with PPAR LBD-GAL4 and GAL4 (UAS) luciferase reporter.
Setting [3] is: Table 2, compounds of interest, HEK293 cells, PPAR LBD-GAL4 luciferase reporter.

As a reminder, the EC50 is the midpoint of the concentration-response curve. A lower EC50 goes with higher potency in that assay.

Bounds are passed on as bounds.

With `Cc1cc(SCc2nc(-c3ccc(C(F)(F)F)c(F)c3)ns2)ccc1OC(C)(C)C(=O)O` [Compound 13, 2-{4-[3-(3-Fluoro-4-trifluoromethyl-phenyl)-[1,2,4]thiadiazol-5-ylmethylsulfanyl]-2-methyl-phenoxy}-2-methyl-propionic acid], the EC50 at PPAR alpha (setting [2]) was determined as 34 nM; at PPAR gamma (setting [2]) it was 640 nM; at PPAR delta (setting [2]), 5.2 nM.

On to `Cc1cc(SCc2nc(-c3ccc(OC(F)(F)F)cc3)ns2)ccc1OC1(C(=O)O)CCCC1` [Compound 14, 1-{2-Methyl-4-[3-(4-trifluoromethoxy-phenyl)-[1,2,4]thiadiazol-5-ylmethylsulfanyl]-phenoxy}-cyclopentanecarboxylic acid], for which the EC50 at PPAR alpha (setting [2]) was 736 nM; at PPAR gamma (setting [2]) it was > 3000 nM; on PPAR delta (setting [2]), > 1000 nM.

As to `Cc1cc(SCc2nc(-c3ccc(Cl)c(Cl)c3)ns2)ccc1OC1(C(=O)O)CCCC1` [Compound 15, 1-{4-[3-(3,4-Dichloro-phenyl)-[1,2,4]thiadiazol-5-ylmethylsulfanyl]-2-methyl-phenoxy}-cyclopentanecarboxylic acid], the values for the EC50 on PPAR alpha (setting [2]), at PPAR gamma (setting [2]) and at PPAR delta (setting [2]) were > 3000 nM, > 3000 nM and > 1000 nM, respectively.

Consider `Cc1cc(SCc2nsc(-c3ccc(C(F)(F)F)cc3)n2)ccc1OC(C)(C)C(=O)O` [Compound 16, 2-Methyl-2-{2-methyl-4-[5-(4-trifluoromethyl-phenyl)-[1,2,4]thiadiazol-3-ylmethylsulfanyl]-phenoxy}-propionic acid], for which the EC50 was 425 nM on PPAR alpha (setting [2]), > 3000 nM on PPAR gamma (setting [2]) and 26 nM on PPAR delta (setting [2]).

As to `Cc1cc(SCc2nsc(-c3ccc(Cl)cc3)n2)ccc1OC(C)(C)C(=O)O` [Compound 18, 2-{4-[5-(4-Chloro-phenyl)-[1,2,4]thiadiazol-3-ylmethylsulfanyl]-2-methyl-phenoxy}-2-methyl-propionic acid], the EC50 was > 3000 nM at PPAR alpha (setting [2]), > 3000 nM on PPAR gamma (setting [2]) and 237 nM at PPAR delta (setting [2]).

Turning to `Cc1cc(SCc2nsc(-c3ccc(Cl)c(Cl)c3)n2)ccc1OC(C)(C)C(=O)O` [Compound 19, 2-{4-[5-(3,4-Dichloro-phenyl)-[1,2,4]thiadiazol-3-ylmethylsulfanyl]-2-methyl-phenoxy}-2-methyl-propionic acid], the 50% effective concentration (EC50) at PPAR alpha (setting [2]) is > 3000 nM; on PPAR gamma (setting [2]), > 3000 nM; on PPAR delta (setting [2]), 229 nM.

As to `Cc1ccc(-c2nsc(COc3ccc(OC(C)(C)C(=O)O)c(C)c3)n2)cc1Cl` [Compound 20, 2-{4-[3-(3-Chloro-4-methyl-phenyl)-[1,2,4]thiadiazol-5-ylmethoxy]-2-methyl-phenoxy}-2-methyl-propionic acid], the results for the half-maximal effective concentration (EC50) at PPAR alpha (setting [2]), at PPAR gamma (setting [2]) and at PPAR delta (setting [2]) were 297 nM, > 3000 nM and 148 nM, respectively.

In the case of `Cc1cc(OCc2nc(-c3ccc(C(F)(F)F)c(F)c3)ns2)ccc1OC(C)(C)C(=O)O` [Compound 21, 2-{4-[3-(3-Fluoro-4-trifluoromethyl-phenyl)-[1,2,4]thiadiazol-5-ylmethoxy]-2-methyl-phenoxy}-2-methyl-propionic acid], the results for the EC50 at PPAR alpha (setting [2]), on PPAR gamma (setting [2]) and at PPAR delta (setting [2]) were 85 nM, > 3000 nM and 3 nM, respectively.

On to `Cc1ccc(-c2nsc(COc3ccc(OC(C)(C)C(=O)O)c(C)c3)n2)cc1C` [Compound 22, 2-{4-[3-(3,4-Dimethyl-phenyl)-[1,2,4]thiadiazol-5-ylmethoxy]-2-methyl-phenoxy}-2-methyl-propionic acid], for which the EC50 was 643 nM on PPAR alpha (setting [2]), > 3000 nM at PPAR gamma (setting [2]) and 534 nM on PPAR delta (setting [2]).

For the molecule `Cc1cc(OCc2nc(-c3ccc(OC(F)(F)F)cc3)ns2)ccc1OC(C)(C)C(=O)O` [Compound 24, 2-Methyl-2-{2-methyl-4-[3-(4-trifluoromethoxy-phenyl)-[1,2,4]thiadiazol-5-ylmethoxy]-phenoxy}-propionic acid], the EC50 at PPAR alpha (setting [2]) is 93.5 nM; on PPAR gamma (setting [2]) it was > 3000 nM; on PPAR delta (setting [2]) it was 12.3 nM.

Take `Cc1cc(OCc2nc(-c3ccc(OC(F)(F)F)c(Cl)c3)ns2)ccc1OC(C)(C)C(=O)O` [Compound 25]: the 50% effective concentration (EC50) is 96.8 nM at PPAR alpha (setting [2]), > 3000 nM at PPAR gamma (setting [2]) and 13 nM at PPAR delta (setting [2]).

Consider `Cc1cc(OCc2nc(-c3ccc(Cl)c(Cl)c3)ns2)ccc1OC(C)(C)C(=O)O` [Compound 26, 2-{4-[3-(3,4-Dichloro-phenyl)-[1,2,4]thiadiazol-5-ylmethoxy]-2-methyl-phenoxy}-2-methyl-propionic acid], for which the EC50 at PPAR alpha (setting [2]) is 504 nM; on PPAR gamma (setting [2]), > 3000 nM; on PPAR delta (setting [2]), 114 nM.

In the case of `Cc1cc(SCCc2nc(-c3ccc(Cl)c(Cl)c3)ns2)ccc1OC(C)(C)C(=O)O` [Compound 27, 2-(4-{2-[3-(3,4-Dichloro-phenyl)-[1,2,4]thiadiazol-5-yl]-ethylsulfanyl}-2-methyl-phenoxy)-2-methyl-propionic acid], the figures for the EC50 at PPAR alpha (setting [2]), on PPAR gamma (setting [2]) and at PPAR delta (setting [2]) were 123 nM, > 1000 nM and 9.3 nM, respectively.

As for `Cc1cc([S+]([O-])Cc2nc(-c3ccc(Cl)c(Cl)c3)ns2)ccc1OC(C)(C)C(=O)O` (centres unmarked) [Compound a, 2-{4-[3-(3,4-Dichloro-phenyl)-[1,2,4]thiadiazol-5-ylmethanesulfinyl]-2-methyl-phenoxy}-2-methyl-propionic acid], the EC50 at PPAR alpha (setting [3]) was > 3000 nM; on PPAR gamma (setting [3]), > 3000 nM; on PPAR delta (setting [3]), 412 nM.

Take `Cc1cc(SCc2csnc2-c2ccc(C(F)(F)F)cc2)ccc1OCC(=O)O` [Compound d, {2-Methyl-4-[3-(4-trifluoromethyl-phenyl)-isothiazol-4-ylmethylsulfanyl]-phenoxy}-acetic acid]: the EC50 is > 3000 nM at PPAR alpha (setting [3]), > 3000 nM on PPAR gamma (setting [3]) and 150 nM on PPAR delta (setting [3]).

For the molecule `Cc1cc(SCc2sc(-c3ccc(C(F)(F)F)cc3)nc2C)ccc1OCC(=O)O` [GW501516], in assay [1], the “ABCA1 mRNA expression” value is “induced” and the cholesterol efflux result was “enhanced”.
